The nature of data set [1]: Pharmacokinetic evaluation in mice after intravenous and oral administration. Conditions: mouse, plasma, male CD-1 mice. Format: in vivo. The method, then:
CD-1 mice (male, Beijing Vital River Laboratory Animal Technology Co., Ltd.)
The pharmacokinetic characteristics of rodents after intravenous and oral administration of the compounds were tested using a standard protocol. In the experiment, the candidate compounds were prepared into clear solutions and administered to mice by single intravenous injection and oral administration. The intravenous and oral vehicles were mixed vehicles of 10% DMSO+90% (20% SBE-β-CD). This project included four male CD-1 mice, two of which were administered intravenously at a dosage of 1 mg/kg, and plasma samples were collected at 0.083 hours, 0.25 hours, 0.5 hours, 1 hour, 2 hours, 4 hours, 8 hours, and 24 hours after administration; the other two mice were orally administered by gavage at a dosage of 2 mg/kg, and plasma samples were collected at 0.25 hours, 0.5 hours, 1 hour, 2 hours, 4 hours, 8 hours, and 24 hours after administration. Blood samples were placed on ice after collection, and plasma was separated by centrifugation within 1 hour (centrifugation conditions: 6000 g, 3 minutes, 2-8° C.). Plasma samples were stored in a refrigerator at −80° C. before analysis. Plasma concentrations were quantitatively analyzed using LC-MS/MS analysis method, and pharmacokinetic parameters were calculated such as peak concentration (Cmax), clearance rate (CL), half-life (T1/2), […] (Vdss), area under concentration-time curve (AUC0-last), and bioavailability (F), etc.

The test system of data set [2] is Staphylococcus epidermidis ATCC 35983. Put plainly: Minimum inhibitory concentration (MIC) assay, Staphylococcus epidermidis ATCC 35983. The settings on record: ATCC35983, aerobic culture 35+/-2°C, 16 to 20 hours, read with naked eyes. The data set is classed as cell-based. The method, then:
(§1) On the day of the experiment, the compound in the flask was dissolved in 100% DMSO until the concentration of mother liquor was 0.4 mg/mL. If the mother liquor was not used on the same day, it was stored at −80° C. for future use.
(§2) The compound mother liquor and standard antibiotics were subjected to 2-fold gradient dilution with corresponding solvents on a 96-microwell plate (V-bottom) to obtain 100× working solutions (Well 1 to Well 7) in sequence. Among them, the concentrations of the compound were 400 μg/mL, 200 μg/mL, 100 μg/mL, 50 μg/mL, 25 μg/mL, 12.5 μg/mL, 6.25 μg/mL, and 3.125 μg/mL. 100% DMSO was used as growth control (Well 8). As such, the compound motherplate was obtained.
(§3) One day before the experiment, aerobic bacteria (Staphylococcus epidermidis) stored in a cryogenic tube at −80° C. were scribed on an MHA (Cation-adjusted Mueller-Hinton agar) plate. The aerobic bacteria were placed in a 35+/−2° C. incubator for 18-24 hours of aerobic cultivation.
(§4) On the day of the experiment, the plate was taken out, clones were picked from the plate and suspended in physiological saline. Then, the turbidity of the bacterial suspension (containing 1.0-2.0×10^8 CFU/mL) was adjusted to OD600=0.2 by a turbidity meter. Then, the adjusted bacterial suspension was diluted to an appropriate concentration with the assay culture medium: about 5×10^5 CFU/mL for aerobic bacteria, and about 1×10^6 CFU/mL for anaerobic bacteria. As such, the inoculating solution was obtained.
(§5) 2 μl of 2-fold series dilution of 100× high-concentration working solution was transferred from a compound mother plate (prepared in step 1) to a round-bottom 96-well plate, and then 198 μL of bacterial inoculating solution (prepared in step 2) was added to each well to obtain an MIC assay plate. Therefore, the final assay concentrations of the compound were 4 μg/mL, 2 μg/mL, 1 μg/mL, 0.5 μg/mL, 0.25 μg/mL, 0.125 μg/mL, 0.06 μg/mL and 0.03 μg/mL. The total volume of each well on the assay plate was 200 μL: containing 1% DMSO, about 5×10^5 CFU/mL of aerobic bacteria and about 1×10^6 CFU/mL of anaerobic bacteria.
(§6) All assay plates for aerobic bacteria were aerobically cultured at 35+/−2° C. for 16 to 20 hours, and all assay plates for anaerobic bacteria were anaerobically cultured in an anaerobic incubator at 35+/−2° C. for 48 hours.

Data set [3] deals with Staphylococcus epidermidis ATCC 12228. Put plainly: Minimum inhibitory concentration (MIC) assay, Staphylococcus epidermidis ATCC 12228. The data set is classed as cell-based. Conditions: ATCC12228, aerobic culture 35+/-2°C, 16 to 20 hours, read with naked eyes. The method, then:
as §1, §2, §3, §4, §5, §6

Data set [4] has as its system Staphylococcus epidermidis ATCC 35984. Put plainly: Minimum inhibitory concentration (MIC) assay, Staphylococcus epidermidis ATCC 35984. Format: cell-based. The settings on record: ATCC35984, aerobic culture 35+/-2°C, 16 to 20 hours, read with naked eyes. The method, then: as §1, §2, §3, §4, §5, §6
Data set [5] concerns Propionibacterium acnes ATCC 11827. Put plainly: Minimum inhibitory concentration (MIC) assay, Propionibacterium acnes ATCC 11827. Format: cell-based. The settings on record: Cutibacterium acnes, ATCC11827; anaerobic culture 35+/-2°C, 48 hours; read with naked eyes. The method, then: (§7) On the day of the experiment, the compound in the flask was dissolved in 100% DMSO until the concentration of mother liquor was 0.4 mg/mL. If the mother liquor was not used on the same day, it was stored at −80° C. for future use. The compound mother liquor and standard antibiotics were subjected to 2-fold gradient dilution with corresponding solvents on a 96-microwell plate (V-bottom) to obtain 100× working solutions (Well 1 to Well 7) in sequence. Among them, the concentrations of the compound were 400 μg/mL, 200 μg/mL, 100 μg/mL, 50 μg/mL, 25 μg/mL, 12.5 μg/mL, 6.25 μg/mL, and 3.125 μg/mL. 100% DMSO was used as growth control (Well 8). As such, the compound motherplate was obtained. Two days before the experiment, anaerobic bacteria (Propionibacterium acnes) stored in a cryogenic tube at −80° C. were scribed on an MBA (Brucella Agar+5% (v/v) defibrillated sheep blood+[…] Hemin+1 μg/mLVitamin K1) plate. The anaerobic bacteria were placed in a 35+/−2° C. anaerobic incubator for 42-48 hours of cultivation. On the day of the experiment, the plate was taken out, clones were picked from the plate and suspended in physiological saline. Then, the turbidity of the bacterial suspension (containing 1.0-2.0×10^8 CFU/mL) was adjusted to OD600=0.2 by a turbidity meter. Then, the adjusted bacterial suspension was diluted to an appropriate concentration with the assay culture medium: about 5×10^5 CFU/mL for aerobic bacteria, and about 1×10^6 CFU/mL for anaerobic bacteria. As such, the inoculating solution was obtained. […] Therefore, the final assay concentrations of the compound were 4 μg/mL, 2 μg/mL, 1 μg/mL, 0.5 μg/mL, 0.25 μg/mL, 0.125 μg/mL, 0.06 μg/mL and 0.03 μg/mL. The total volume of each well on the assay plate was 200 μL: containing 1% DMSO, about 5×10^5 CFU/mL of aerobic bacteria and about 1×10^6 CFU/mL of anaerobic bacteria. All assay plates for aerobic bacteria were aerobically cultured at 35+/−2° C. for 16 to 20 hours, and all assay plates for anaerobic bacteria were anaerobically cultured in an anaerobic incubator at 35+/−2° C. for 48 hours. Note: for anaerobic bacteria, both the preparation of bacterial solution in step 2 and the inoculation of bacterial solution in step 3 were operated in an anaerobic workstation.

Data set [6] relates to Propionibacterium acnes ATCC 6919. Put plainly: Minimum inhibitory concentration (MIC) assay, Propionibacterium acnes ATCC 6919. Conditions: Cutibacterium acnes, ATCC6919; anaerobic culture 35+/-2°C, 48 hours; read with naked eyes. The data set is classed as cell-based. Here is the method:
as §7

Broadly, the MIC is the lowest concentration found to suppress growth. A lower MIC goes with greater potency.

Converted amounts (≈) assume the structure as drawn. Structures can show the parent of a compound that is named as a salt.

On to `Nc1cc2c(cn1)-c1ccc3c(=O)c(C(=O)O)cn(C4CC4)c3c1COC2` [Hydrochloride of Compound 7], for which, in data set [1] (IV 1 mg/kg, oral gavage 2 mg/kg, read-out: Bioavailability F), the bioavailability was determined as 132%. In data set [1] (IV 1 mg/kg, oral gavage 2 mg/kg, route of Cmax not given, read-out: Peak concentration Cmax), the Cmax stood at 683 nM. The clearance in data set [1] (IV 1 mg/kg, read-out: Clearance rate CL) worked out at 132 mL/min/kg. Besides, the half-life in data set [1] (IV 1 mg/kg, read-out: Half-life T1/2 (IV) (converted)) is 20.5 min. In data set [1] (IV 1 mg/kg, read-out: Tissue distribution Vdss), the Vd was 3.04 L/kg. Also, in data set [1] (oral gavage 2 mg/kg, read-out: Area under concentration-time curve AUC0-last PO), the AUC(0-t) came out at 0.924 µM·h.

`Nc1ncc2c(n1)COCc1c-2ccc2c(=O)c(C(=O)O)cn(C3CC3)c12` [Trifluoroacetate of Compound 9]: the MIC in data set [2] worked out at 0.06 µg/mL; in data set [3], 0.03 µg/mL; in data set [4], 0.125 µg/mL; in data set [5], 0.25 µg/mL; in data set [6], 0.25 µg/mL.

As for `CN(C[C@H]1COC(C)(C)O1)c1cc2c(cn1)-c1ccc3c(=O)c(C(=O)O)cn(C4CC4)c3c1COC2` [Compound 25], the MIC in data set [2] was 0.5 µg/mL (≈ 1.02 µM); in data set [3] it was 0.25 µg/mL (≈ 0.509 µM); in data set [4], 0.25 µg/mL (≈ 0.509 µM); in data set [5], 0.25 µg/mL (≈ 0.509 µM); in data set [6], 0.25 µg/mL (≈ 0.509 µM).

On to `CC1(C)OC[C@H](CNc2cc3c(cn2)-c2ccc4c(=O)c(C(=O)O)cn(C5CC5)c4c2COC3)O1` [Compound 26], for which the MIC in data set [2] was 0.25 µg/mL (≈ 0.524 µM); in data set [3] it was 0.25 µg/mL (≈ 0.524 µM); in data set [4], 0.25 µg/mL (≈ 0.524 µM); in data set [5], 0.5 µg/mL (≈ 1.05 µM); in data set [6], 0.5 µg/mL (≈ 1.05 µM).

The record behind these values is patent publication US20250042912A1, “NOVEL NON-FLUORINATED QUINOLONE COMPOUND AND USE THEREOF” (priority 2021, published 2025).
